Biological target: E. coli RNA polymerase β subunit (wild-type) (Escherichia coli, UniProt P0A8V2)
Assay: coupled cell-free synthesis of RNAP holoenzyme with firefly luciferase reporter
Type: biochemical

E. coli RNA polymerase β subunit (wild-type), sequence (P0A8V2 whole entry): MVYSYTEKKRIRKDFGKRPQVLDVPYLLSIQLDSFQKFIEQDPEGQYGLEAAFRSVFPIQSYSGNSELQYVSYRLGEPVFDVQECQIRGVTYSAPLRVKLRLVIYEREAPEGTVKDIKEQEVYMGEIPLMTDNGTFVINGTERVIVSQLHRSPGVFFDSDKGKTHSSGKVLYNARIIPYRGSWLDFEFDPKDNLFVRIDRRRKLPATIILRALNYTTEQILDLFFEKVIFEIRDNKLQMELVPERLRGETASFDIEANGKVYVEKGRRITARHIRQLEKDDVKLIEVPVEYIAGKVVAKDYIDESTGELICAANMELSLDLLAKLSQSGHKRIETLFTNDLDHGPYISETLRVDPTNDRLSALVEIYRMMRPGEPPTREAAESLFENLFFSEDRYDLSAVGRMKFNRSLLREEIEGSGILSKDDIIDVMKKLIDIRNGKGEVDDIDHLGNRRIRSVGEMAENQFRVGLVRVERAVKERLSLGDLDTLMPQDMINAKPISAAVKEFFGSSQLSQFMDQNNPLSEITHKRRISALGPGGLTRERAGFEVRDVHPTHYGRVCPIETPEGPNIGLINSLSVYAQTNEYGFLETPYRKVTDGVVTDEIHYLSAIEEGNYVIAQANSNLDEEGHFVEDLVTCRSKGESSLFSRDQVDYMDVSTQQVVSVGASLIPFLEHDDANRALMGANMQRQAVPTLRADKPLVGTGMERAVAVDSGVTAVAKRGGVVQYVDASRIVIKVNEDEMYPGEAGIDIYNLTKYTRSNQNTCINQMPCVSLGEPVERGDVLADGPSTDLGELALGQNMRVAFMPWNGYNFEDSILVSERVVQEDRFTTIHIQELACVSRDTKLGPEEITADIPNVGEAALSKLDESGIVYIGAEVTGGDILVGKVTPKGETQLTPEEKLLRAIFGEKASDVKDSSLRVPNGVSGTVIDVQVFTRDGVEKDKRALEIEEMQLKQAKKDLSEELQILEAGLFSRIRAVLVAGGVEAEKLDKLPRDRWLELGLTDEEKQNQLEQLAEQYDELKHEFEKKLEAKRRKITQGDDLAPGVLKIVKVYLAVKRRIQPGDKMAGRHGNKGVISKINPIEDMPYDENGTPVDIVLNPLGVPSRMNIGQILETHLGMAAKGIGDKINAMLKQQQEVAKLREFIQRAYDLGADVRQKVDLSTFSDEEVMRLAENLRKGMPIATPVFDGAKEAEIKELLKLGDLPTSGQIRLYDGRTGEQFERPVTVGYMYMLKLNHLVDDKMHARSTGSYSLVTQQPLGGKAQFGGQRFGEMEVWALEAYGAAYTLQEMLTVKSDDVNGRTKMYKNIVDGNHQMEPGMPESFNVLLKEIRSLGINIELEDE
E. coli RNA polymerase β subunit (wild-type), sequence (P0A7Z4 whole entry partner): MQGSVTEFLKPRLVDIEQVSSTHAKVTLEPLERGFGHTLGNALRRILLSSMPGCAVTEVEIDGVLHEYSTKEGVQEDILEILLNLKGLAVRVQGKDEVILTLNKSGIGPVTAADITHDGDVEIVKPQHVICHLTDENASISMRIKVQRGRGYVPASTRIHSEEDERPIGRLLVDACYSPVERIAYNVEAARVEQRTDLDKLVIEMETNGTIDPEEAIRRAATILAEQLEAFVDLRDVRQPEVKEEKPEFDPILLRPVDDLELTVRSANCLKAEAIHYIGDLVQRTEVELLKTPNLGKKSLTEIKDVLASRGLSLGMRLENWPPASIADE
E. coli RNA polymerase β subunit (wild-type), sequence (P0A8T7 whole entry partner): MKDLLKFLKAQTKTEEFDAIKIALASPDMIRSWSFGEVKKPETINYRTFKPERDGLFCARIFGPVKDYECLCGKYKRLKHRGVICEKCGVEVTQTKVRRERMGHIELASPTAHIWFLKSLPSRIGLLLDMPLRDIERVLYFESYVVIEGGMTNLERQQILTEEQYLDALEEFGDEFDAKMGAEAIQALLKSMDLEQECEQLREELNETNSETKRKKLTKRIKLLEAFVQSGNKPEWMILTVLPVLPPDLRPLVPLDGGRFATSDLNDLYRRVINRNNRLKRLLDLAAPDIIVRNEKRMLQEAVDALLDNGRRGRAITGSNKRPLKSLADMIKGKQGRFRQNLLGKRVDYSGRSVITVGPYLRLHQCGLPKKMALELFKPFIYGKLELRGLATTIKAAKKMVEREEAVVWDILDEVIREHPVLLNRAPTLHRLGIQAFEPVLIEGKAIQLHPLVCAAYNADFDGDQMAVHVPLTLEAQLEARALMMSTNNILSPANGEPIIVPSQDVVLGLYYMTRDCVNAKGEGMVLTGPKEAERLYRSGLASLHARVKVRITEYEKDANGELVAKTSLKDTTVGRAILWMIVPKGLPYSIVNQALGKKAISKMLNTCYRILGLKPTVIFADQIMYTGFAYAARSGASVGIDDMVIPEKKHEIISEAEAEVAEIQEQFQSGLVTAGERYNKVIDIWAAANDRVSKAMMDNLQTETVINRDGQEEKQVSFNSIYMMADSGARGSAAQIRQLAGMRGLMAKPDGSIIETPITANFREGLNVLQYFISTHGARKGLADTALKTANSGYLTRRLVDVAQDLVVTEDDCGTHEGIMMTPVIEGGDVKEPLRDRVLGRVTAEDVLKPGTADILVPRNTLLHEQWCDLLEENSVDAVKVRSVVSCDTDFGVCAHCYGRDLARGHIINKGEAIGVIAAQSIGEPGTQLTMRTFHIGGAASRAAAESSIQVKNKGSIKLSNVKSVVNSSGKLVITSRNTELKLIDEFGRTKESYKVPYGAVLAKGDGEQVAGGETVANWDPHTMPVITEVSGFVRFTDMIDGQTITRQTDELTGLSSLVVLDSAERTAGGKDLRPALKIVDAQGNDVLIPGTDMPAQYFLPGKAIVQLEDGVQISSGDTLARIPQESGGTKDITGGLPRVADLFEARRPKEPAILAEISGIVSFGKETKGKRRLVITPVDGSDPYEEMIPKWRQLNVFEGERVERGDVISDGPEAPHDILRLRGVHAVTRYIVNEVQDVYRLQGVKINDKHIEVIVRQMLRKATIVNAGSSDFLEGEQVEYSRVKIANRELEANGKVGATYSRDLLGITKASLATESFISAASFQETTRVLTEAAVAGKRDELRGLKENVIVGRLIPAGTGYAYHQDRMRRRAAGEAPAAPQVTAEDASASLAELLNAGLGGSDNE
E. coli RNA polymerase β subunit (wild-type), sequence (P0A800 2-91 partner): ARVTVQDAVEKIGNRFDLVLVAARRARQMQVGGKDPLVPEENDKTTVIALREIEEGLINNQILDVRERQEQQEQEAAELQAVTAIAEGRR
E. coli RNA polymerase β subunit (wild-type), sequence (P0AGB3 whole entry partner): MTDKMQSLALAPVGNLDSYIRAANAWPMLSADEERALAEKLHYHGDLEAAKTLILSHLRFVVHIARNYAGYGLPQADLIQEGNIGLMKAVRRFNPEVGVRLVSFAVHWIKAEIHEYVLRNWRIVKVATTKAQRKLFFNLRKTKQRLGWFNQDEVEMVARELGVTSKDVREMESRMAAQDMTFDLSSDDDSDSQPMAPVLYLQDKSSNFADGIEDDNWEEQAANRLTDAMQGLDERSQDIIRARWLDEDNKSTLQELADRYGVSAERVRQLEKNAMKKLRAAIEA

With `CO[C@H]1/C=C/O[C@@]2(C)Oc3c(C)c(O)c4c(O)c(c(/C=N/N5CCN(C)CC5)c(O)c4c3C2=O)NC(=O)/C(C)=C\C=C\[C@H](C)[C@H](O)[C@@H](C)[C@@H](O)[C@@H](C)[C@H](OC(C)=O)[C@@H]1C` [rifampicin] the IC50 was about 200 nM.
